Six molecules from ChEMBL document CHEMBL6134868, “Novel Aryl Sulfonium Modification on Vancomycin to Tackle MRSA and VRE In Vitro and In Vivo through Dual Enhanced Cell-Wall and Membrane Inhibition” (J Med Chem, 2025) can be followed below.

In brackets after ≈: the same amount, converted by molar mass. Positions of bridges follow the written chain, without caps; N, C: chain ends. Non-standard residues stand in square brackets, D forms with d. Residues, ends and D or L forms follow the SMILES beside them. *: point of attachment. X1 = CC[C@H](C)CCCCC(=O)*; Dab = NCC[C@H](N)C(=O)O

The MIC is the smallest concentration in the dilution series that meets the test's criterion for growth inhibition. High values mean weaker potency, low ones greater potency.

What all share (format): functional
Holding throughout (settings): time 16-24 hrs

For one assay, the system named is Klebsiella pneumoniae. Put plainly: Antibacterial activity against Klebsiella pneumoniae KP-1 incubated for 16 to 24 hrs by broth microdilution assay. Background: Dilution methods test growth across graded concentrations, often in twofold steps.
Assay [1] has as its system Enterococcus faecium. Put plainly: Antibacterial activity against vancomycin-resistant Enterococcus faecium Efm-HS-08257 harboring VanM phenotype incubated for 16 to 24 hrs by broth microdilution assay.
The test system of another assay is Pseudomonas aeruginosa. Put plainly: Antibacterial activity against Pseudomonas aeruginosa PAO1 incubated for 16 to 24 hrs by broth microdilution assay.
For assay [2], the system named is Acinetobacter baumannii. Put plainly: Antibacterial activity against carbapenem-resistant Acinetobacter baumannii CRAB-1 clinical isolate incubated for 16 to 24 hrs by broth microdilution assay.
For assay [3], the system named is Staphylococcus aureus. Put plainly: Antibacterial activity against methicillin-resistant Staphylococcus aureus USA300 LAC incubated for 16 to 24 hrs by broth microdilution assay.
The next assay deals with Escherichia coli. Put plainly: Antibacterial activity against Escherichia coli AB1157 incubated for 16 to 24 hrs by broth microdilution assay.
Assay [4] concerns Enterococcus faecium. In words: Antibacterial activity against vancomycin-resistant Enterococcus faecium Efm-HS-vb01 harboring VanB phenotype incubated for 16 to 24 hrs by broth microdilution assay.
For assay [5], the system named is Staphylococcus aureus. In words: Antibacterial activity against vancomycin-intermediate Staphylococcus aureus Mu50 incubated for 16 to 24 hrs by broth microdilution assay.
Assay [6] relates to Enterococcus faecium. In words: Antibacterial activity against vancomycin-resistant Enterococcus faecium Efm-HS-0649 harboring VanA phenotype incubated for 16 to 24 hrs by broth microdilution assay.
Assay [7] concerns Acinetobacter baumannii. Put plainly: Antibacterial activity against Acinetobacter baumannii ATCC19606 incubated for 16 to 24 hrs by broth microdilution assay.
Assay [8] relates to Enterococcus faecium. Put plainly: Antibacterial activity against vancomycin-resistant Enterococcus faecium Efm-HS-vb02 harboring VanB phenotype incubated for 16 to 24 hrs by broth microdilution assay.

Turning to `CN[C@H](CC(C)C)C(=O)N[C@H]1C(=O)N[C@@H](CC(N)=O)C(=O)N[C@H]2C(=O)N[C@H]3C(=O)N[C@H](C(=O)N[C@H](C(=O)NCCC[S+](C)C[C@H](O)COc4ccccc4)c4cc(O)cc(O)c4-c4cc3ccc4O)[C@H](O)c3ccc(c(Cl)c3)Oc3cc2cc(c3O[C@@H]2O[C@H](CO)[C@@H](O)[C@H](O)[C@H]2O[C@H]2C[C@](C)(N)[C@H](O)[C@H](C)O2)Oc2ccc(cc2Cl)[C@H]1O.O=C([O-])C(F)(F)F` (stereo not given in full), the MIC is greater than 128 µg/mL with Klebsiella pneumoniae; 16 µg/mL in the assay on Enterococcus faecium [1]; 128 µg/mL against Pseudomonas aeruginosa; greater than 128 µg/mL in the assay with Acinetobacter baumannii [2]; 0.25 µg/mL against Staphylococcus aureus [3]; 16 µg/mL against Escherichia coli. For the same molecule, the MIC in the assay on Enterococcus faecium [4] was found to be 16 µg/mL; in the assay on Staphylococcus aureus [5], 1 µg/mL; in the assay on Enterococcus faecium [6], 32 µg/mL; against Acinetobacter baumannii [7] it was 64 µg/mL; against Enterococcus faecium [8], 4 µg/mL.
For the molecule `CC(=O)NC[C@H]1CN(c2ccc(N3CCOCC3)c(F)c2)C(=O)O1` [LINEZOLID], the MIC in the assay on Klebsiella pneumoniae is greater than 128 µg/mL; against Enterococcus faecium [1], 2 µg/mL (≈ 5.93 µM); against Pseudomonas aeruginosa, 128 µg/mL (≈ 379 µM); against Acinetobacter baumannii [2], 128 µg/mL (≈ 379 µM); in the assay on Staphylococcus aureus [3], 1 µg/mL (≈ 2.96 µM); with Escherichia coli, 128 µg/mL (≈ 379 µM). Further, the MIC was 2 µg/mL (≈ 5.93 µM) with Enterococcus faecium [4], 1 µg/mL (≈ 2.96 µM) with Enterococcus faecium [6], 128 µg/mL (≈ 379 µM) with Acinetobacter baumannii [7] and 2 µg/mL (≈ 5.93 µM) against Enterococcus faecium [8].
With `CN[C@H](CC(C)C)C(=O)N[C@H]1C(=O)N[C@@H](CC(N)=O)C(=O)N[C@H]2C(=O)N[C@H]3C(=O)N[C@H](C(=O)N[C@H](C(=O)NCCC[S+](C)CC(O)COc4ccccc4Cl)c4cc(O)cc(O)c4-c4cc3ccc4O)[C@H](O)c3ccc(c(Cl)c3)Oc3cc2cc(c3O[C@@H]2O[C@H](CO)[C@@H](O)[C@H](O)[C@H]2O[C@H]2C[C@](C)(N)[C@H](O)[C@H](C)O2)Oc2ccc(cc2Cl)[C@H]1O.O=C([O-])C(F)(F)F` (stereo not given in full), the MIC was greater than 128 µg/mL with Klebsiella pneumoniae; 8 µg/mL against Enterococcus faecium [1]; greater than 128 µg/mL against Pseudomonas aeruginosa; greater than 128 µg/mL against Acinetobacter baumannii [2]; 0.25 µg/mL in the assay on Staphylococcus aureus [3]; 16 µg/mL with Escherichia coli. Besides, the MIC against Enterococcus faecium [4] is 8 µg/mL; in the assay on Staphylococcus aureus [5], 1 µg/mL; in the assay on Enterococcus faecium [6], 16 µg/mL; in the assay with Acinetobacter baumannii [7], 64 µg/mL; against Enterococcus faecium [8], 2 µg/mL.
As to `C[C@@H](O)[C@H]1C(=O)N2C(C(=O)O)=C(S[C@@H]3CN[C@H](C(=O)N(C)C)C3)[C@H](C)[C@H]12` [MEROPENEM], the values for the MIC in the assay on Acinetobacter baumannii [2] and in the assay with Acinetobacter baumannii [7] were greater than 128 µg/mL and 2 µg/mL (≈ 5.22 µM), respectively.
Consider `CCCCCCCCCC(=O)N[C@@H](Cc1c[nH]c2ccccc12)C(=O)N[C@@H](CC(N)=O)C(=O)N[C@@H](CC(=O)O)C(=O)N[C@@H]1C(=O)NCC(=O)N[C@@H](CCCN)C(=O)N[C@@H](CC(=O)O)C(=O)N[C@H](C)C(=O)N[C@@H](CC(=O)O)C(=O)NCC(=O)N[C@H](CO)C(=O)N[C@@H]([C@@H](C)CC(=O)O)C(=O)N[C@@H](CC(=O)c2ccccc2N)C(=O)O[C@@H]1C`, for which the MIC worked out at 8 µg/mL (≈ 4.94 µM) against Enterococcus faecium [1]; 1 µg/mL (≈ 0.617 µM) with Staphylococcus aureus [3]; 8 µg/mL (≈ 4.94 µM) against Enterococcus faecium [4]; 4 µg/mL (≈ 2.47 µM) against Staphylococcus aureus [5]; 8 µg/mL (≈ 4.94 µM) against Enterococcus faecium [6]; 4 µg/mL (≈ 2.47 µM) in the assay on Enterococcus faecium [8].
In the case of `CC(C)CCCCC(=O)N[C@@H](CCN)C(=O)N[C@H](C(=O)N[C@@H](CCN)C(=O)N[C@H]1CCNC(=O)[C@H]([C@@H](C)O)NC(=O)[C@H](CCN)NC(=O)[C@H](CCN)NC(=O)[C@H](CC(C)C)NC(=O)[C@@H](Cc2ccccc2)NC(=O)[C@H](CCN)NC1=O)[C@@H](C)O.CC[C@H](C)CCCCC(=O)N[C@@H](CCN)C(=O)N[C@H](C(=O)N[C@@H](CCN)C(=O)N[C@H]1CCNC(=O)[C@H]([C@@H](C)O)NC(=O)[C@H](CCN)NC(=O)[C@H](CCN)NC(=O)[C@H](CC(C)C)NC(=O)[C@@H](Cc2ccccc2)NC(=O)[C@H](CCN)NC1=O)[C@@H](C)O` (X1-[Dab]T[Dab][Dab][Dab][dF]L[Dab][Dab]T; lactam 4-C), the minimal inhibitory concentration (MIC) against Klebsiella pneumoniae was no more than 0.063 µg/mL; with Pseudomonas aeruginosa, 0.5 µg/mL; in the assay with Acinetobacter baumannii [2], 0.125 µg/mL; against Escherichia coli, 0.125 µg/mL; against Acinetobacter baumannii [7], 0.125 µg/mL.
